test system: secretion of IL10 by OCI-LY3 ABC-DLBCL cells; experiment: Human IL10 Mesoscale assay (OCI-LY3); type: cell-based; settings: 24 h incubation, IL10 in supernatant
How it was run: (§1)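 OCI-LY3 cells (100,000/well) treated 24 h at 37° C with compounds, 9-point 1:2 dilutions from 15 μM to 58.6 nM (0.3% DMSO). Supernatant IL6 and IL10 quantified by Mesoscale electrochemiluminescence immunoassay; DMSO defined maximum signal, BTK inhibitor RN486 defined maximum inhibition.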

IC50 [nM]	SMILES
190	COC(C)c1c(Br)cncc1NC(=O)Nc1cnc(-n2nccn2)c(Cl)c1 (single isomer, unassigned) [Co. 18]
110	COc1ncc(NC(=O)Nc2cnc(C)c(Cl)c2[C@H](C)OC)cc1C#N [Co. 76]
14100	COC(C)c1c(NC(=O)Nc2cnc(-n3nccn3)c(Cl)c2)cncc1C(N)=O (racemic) [Co. 39]
850	CO[C@@H](C)c1c(NC(=O)Nc2cnc(-n3nccn3)c(Cl)c2)cnc(C)c1Br [Co. 46]
60	CO[C@@H](C)c1c(NC(=O)Nc2cnc(-n3nccn3)c(C(F)(F)F)c2)cnc(C)c1Cl [Co. 111]
170	CO[C@H](C)c1c(NC(=O)Nc2cc(Cl)c(-n3nccn3)nc2C)cnc(C)c1C#N [Co. 88]
1780	C=C(C)c1cncc(NC(=O)Nc2cnc(-n3nccn3)c(Cl)c2)c1C(C)OC (racemic) [Co. 29]
160	CO[C@@H](C)c1c(NC(=O)Nc2cc(Cl)c(-n3nccn3)nc2C)cnc(C)c1C#N [Co. 89]
40	CO[C@@H](c1c(NC(=O)Nc2cnc(-n3nccn3)c(C(F)(F)F)c2)cnc(C)c1C#N)C1CC1 [Co. 121]
170	CO[C@H](C)c1c(NC(=O)Nc2cnc(-n3nccn3)c(Cl)c2)cncc1OC(C)C [Co. 9]

same assay, conditions: Homo sapiens, 24 h incubation, IL10 in supernatant

IC50 [nM]	SMILES
120	CO[C@H](C)c1c(Cl)cncc1NC(=O)Nc1cnc(-n2nccn2)c(Cl)c1 [Co. 23]
160	COc1cncc(NC(=O)Nc2cc(C(F)(F)F)c(-n3nccn3)nc2OC)c1[C@@H](C)OC (single isomer, unassigned) [Co. 146]
> 15000	COc1c(NC(C)(C)C)ncc(NC(=O)Nc2cnc(-n3nccn3)c(C(F)(F)F)c2)c1C(C)OC (stereo not drawn) [Co. 152]
660	CO[C@@H](C)c1c(NC(=O)Nc2cnc(-n3nccn3)c(C(F)(F)F)c2)cnc(C(F)F)c1Br (single isomer, unassigned) [Co. 147]
80	CO[C@H](C)c1c(NC(=O)Nc2cnc(-n3nccn3)c(C(F)(F)F)c2)cnc(C(F)F)c1Cl (single isomer, unassigned) [Co. 134]
120	COC(C)c1c(Cl)cncc1NC(=O)Nc1cnc(-n2nccn2)c(Cl)c1 (stereo not drawn) [Co. 22]

molecular target: T1, full-length MALT1 protein (Strep-MALT1(1-824)-His) (Homo sapiens, UniProt Q9UDY8); experiment: MALT1 Biochemical Protease Assay; settings: 10 nM FL MALT1, 200 μM Ac-LRSR-AMC, 50 min pre-incubation, 4 h at RT; read-out: MALT1_Biochemical activity (Ac-LRSR-amc) IC50
T1 construct: full-length MALT1 protein (Strep-MALT1(1-824)-His) purified from baculovirus-infected insect cells; Strep (N); His (C); made in house; host or cells: baculovirus-infected insect cells
T1 sequence (Q9UDY8 1-824): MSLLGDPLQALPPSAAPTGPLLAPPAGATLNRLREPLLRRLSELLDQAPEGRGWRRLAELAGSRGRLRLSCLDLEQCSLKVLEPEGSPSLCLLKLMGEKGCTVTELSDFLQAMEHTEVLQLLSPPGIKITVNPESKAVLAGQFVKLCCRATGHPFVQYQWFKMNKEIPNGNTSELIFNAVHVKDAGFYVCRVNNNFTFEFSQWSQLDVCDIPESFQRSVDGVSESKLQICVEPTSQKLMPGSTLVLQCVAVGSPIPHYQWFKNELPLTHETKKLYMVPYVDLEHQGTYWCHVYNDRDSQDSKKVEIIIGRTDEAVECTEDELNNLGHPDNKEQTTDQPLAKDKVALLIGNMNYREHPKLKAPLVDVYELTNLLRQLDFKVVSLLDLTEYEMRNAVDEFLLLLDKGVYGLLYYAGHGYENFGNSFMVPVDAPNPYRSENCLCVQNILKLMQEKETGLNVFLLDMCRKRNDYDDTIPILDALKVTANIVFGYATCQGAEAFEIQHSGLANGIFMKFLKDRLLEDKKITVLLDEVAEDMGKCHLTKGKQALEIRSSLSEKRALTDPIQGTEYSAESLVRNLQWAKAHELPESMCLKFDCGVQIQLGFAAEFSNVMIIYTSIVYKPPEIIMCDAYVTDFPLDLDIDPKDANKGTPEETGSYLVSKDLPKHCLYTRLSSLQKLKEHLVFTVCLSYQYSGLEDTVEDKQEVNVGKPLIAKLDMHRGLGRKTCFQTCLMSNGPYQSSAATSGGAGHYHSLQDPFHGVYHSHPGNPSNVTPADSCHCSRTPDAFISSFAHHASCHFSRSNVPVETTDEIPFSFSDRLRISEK
How it was run: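 Full-length Strep-MALT1(1-824)-His from baculovirus-infected insect cells, 10 nM, preincubated with compound 50 min at RT; 200 μM Ac-LRSR-AMC (KM) in 50 mM Tris pH 7.5, 0.6 M citrate, 1 mM DTT, 1 mM EDTA, 0.05% BSA, 1.5% DMSO. Fluorescence 355/460 nm, 4 h minus time 0; 11-point 1:3 series 30 μM–0.5 nM, IC50 with Hill slope.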

IC50 [nM]	SMILES
110	CO[C@H](C)c1c(Cl)cncc1NC(=O)Nc1cnc(-n2nccn2)c(Cl)c1 [Co. 23]
100	COC(C)c1c(Br)cncc1NC(=O)Nc1cnc(-n2nccn2)c(Cl)c1 (single isomer, unassigned) [Co. 18]
270	COc1cncc(NC(=O)Nc2cc(C(F)(F)F)c(-n3nccn3)nc2OC)c1[C@@H](C)OC (single isomer, unassigned) [Co. 146]
160	COc1ncc(NC(=O)Nc2cnc(C)c(Cl)c2[C@H](C)OC)cc1C#N [Co. 76]
> 30000	COc1c(NC(C)(C)C)ncc(NC(=O)Nc2cnc(-n3nccn3)c(C(F)(F)F)c2)c1C(C)OC (stereo not drawn) [Co. 152]
8710	COC(C)c1c(NC(=O)Nc2cnc(-n3nccn3)c(Cl)c2)cncc1C(N)=O (racemic) [Co. 39]
580	CO[C@@H](C)c1c(NC(=O)Nc2cnc(-n3nccn3)c(Cl)c2)cnc(C)c1Br [Co. 46]
560	CO[C@@H](C)c1c(NC(=O)Nc2cnc(-n3nccn3)c(C(F)(F)F)c2)cnc(C(F)F)c1Br (single isomer, unassigned) [Co. 147]
30	CO[C@@H](C)c1c(NC(=O)Nc2cnc(-n3nccn3)c(C(F)(F)F)c2)cnc(C)c1Cl [Co. 111]
100	CO[C@H](C)c1c(NC(=O)Nc2cc(Cl)c(-n3nccn3)nc2C)cnc(C)c1C#N [Co. 88]
40	CO[C@H](C)c1c(NC(=O)Nc2cnc(-n3nccn3)c(C(F)(F)F)c2)cnc(C(F)F)c1Cl (single isomer, unassigned) [Co. 134]
980	C=C(C)c1cncc(NC(=O)Nc2cnc(-n3nccn3)c(Cl)c2)c1C(C)OC (racemic) [Co. 29]
290	COC(C)c1c(Cl)cncc1NC(=O)Nc1cnc(-n2nccn2)c(Cl)c1 (stereo not drawn) [Co. 22]
110	CO[C@@H](C)c1c(NC(=O)Nc2cc(Cl)c(-n3nccn3)nc2C)cnc(C)c1C#N [Co. 89]
20	CO[C@@H](c1c(NC(=O)Nc2cnc(-n3nccn3)c(C(F)(F)F)c2)cnc(C)c1C#N)C1CC1 [Co. 121]
170	CO[C@H](C)c1c(NC(=O)Nc2cnc(-n3nccn3)c(Cl)c2)cncc1OC(C)C [Co. 9]

test system: secretion of IL6 by OCI-LY3 ABC-DLBCL cells; experiment: Human IL6 Mesoscale assay (OCI-LY3); type: cell-based; settings: 24 h incubation, IL6 in supernatant
How it was run: as §1

IC50 [nM]	SMILES
100	COC(C)c1c(Br)cncc1NC(=O)Nc1cnc(-n2nccn2)c(Cl)c1 (single isomer, unassigned) [Co. 18]
130	COc1ncc(NC(=O)Nc2cnc(C)c(Cl)c2[C@H](C)OC)cc1C#N [Co. 76]
> 15100	COC(C)c1c(NC(=O)Nc2cnc(-n3nccn3)c(Cl)c2)cncc1C(N)=O (racemic) [Co. 39]
750	CO[C@@H](C)c1c(NC(=O)Nc2cnc(-n3nccn3)c(Cl)c2)cnc(C)c1Br [Co. 46]
90	CO[C@@H](C)c1c(NC(=O)Nc2cnc(-n3nccn3)c(C(F)(F)F)c2)cnc(C)c1Cl [Co. 111]
290	CO[C@H](C)c1c(NC(=O)Nc2cc(Cl)c(-n3nccn3)nc2C)cnc(C)c1C#N [Co. 88]
1820	C=C(C)c1cncc(NC(=O)Nc2cnc(-n3nccn3)c(Cl)c2)c1C(C)OC (racemic) [Co. 29]
250	CO[C@@H](C)c1c(NC(=O)Nc2cc(Cl)c(-n3nccn3)nc2C)cnc(C)c1C#N [Co. 89]
60	CO[C@@H](c1c(NC(=O)Nc2cnc(-n3nccn3)c(C(F)(F)F)c2)cnc(C)c1C#N)C1CC1 [Co. 121]
190	CO[C@H](C)c1c(NC(=O)Nc2cnc(-n3nccn3)c(Cl)c2)cncc1OC(C)C [Co. 9]

same assay, conditions: Homo sapiens, 24 h incubation, IL6 in supernatant

IC50 [nM]	SMILES
180	CO[C@H](C)c1c(Cl)cncc1NC(=O)Nc1cnc(-n2nccn2)c(Cl)c1 [Co. 23]
320	COc1cncc(NC(=O)Nc2cc(C(F)(F)F)c(-n3nccn3)nc2OC)c1[C@@H](C)OC (single isomer, unassigned) [Co. 146]
> 15000	COc1c(NC(C)(C)C)ncc(NC(=O)Nc2cnc(-n3nccn3)c(C(F)(F)F)c2)c1C(C)OC (stereo not drawn) [Co. 152]
850	CO[C@@H](C)c1c(NC(=O)Nc2cnc(-n3nccn3)c(C(F)(F)F)c2)cnc(C(F)F)c1Br (single isomer, unassigned) [Co. 147]
80	CO[C@H](C)c1c(NC(=O)Nc2cnc(-n3nccn3)c(C(F)(F)F)c2)cnc(C(F)F)c1Cl (single isomer, unassigned) [Co. 134]
160	COC(C)c1c(Cl)cncc1NC(=O)Nc1cnc(-n2nccn2)c(Cl)c1 (stereo not drawn) [Co. 22]

From patent publication US12404260B2, “Pyridine rings containing derivatives as MALT1 inhibitors” (Janssen Pharmaceutica NV, priority 2019, dated 2025)
